Source: patent US6617117B1, “MAP kinases: polypeptides, polynucleotides and uses thereof” (Medical Research Council, priority 1996, dated 2003)

Key:
MAPKAP-K2 = conditions: every mammalian cell so far examined; cited from earlier work
MAPKAP-K3 = conditions: every mammalian cell so far examined; cited from earlier work
SAPK4 = target: T1, SAPK4 (Homo sapiens, UniProt O15264); assay: Inhibition of SAPK4, MBP phosphorylation (FIG. 9); assay type: biochemical; parameters: made in house; host or cells: E. coli BL21(DE3)
T1 sequence (O15264 1-365): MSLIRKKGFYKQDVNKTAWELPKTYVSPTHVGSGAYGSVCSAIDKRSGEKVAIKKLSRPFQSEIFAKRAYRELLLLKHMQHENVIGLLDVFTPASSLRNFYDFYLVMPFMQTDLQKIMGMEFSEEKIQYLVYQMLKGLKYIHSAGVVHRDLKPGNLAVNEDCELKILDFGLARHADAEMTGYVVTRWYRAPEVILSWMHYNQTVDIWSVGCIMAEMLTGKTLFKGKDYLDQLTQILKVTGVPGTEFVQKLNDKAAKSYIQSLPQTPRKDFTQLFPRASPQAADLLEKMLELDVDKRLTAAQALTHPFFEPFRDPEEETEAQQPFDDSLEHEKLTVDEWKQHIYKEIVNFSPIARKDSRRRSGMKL
Method: SAPK4 is assayed routinely by the phosphorylation of MBP. […] After washing and drying the papers (Alessi et al, 1995 Meth. Enzymol. 255, 279-290) ^32P radioactivity incorporated into MBP is measured.

SAPK3 (GST-SAPK3) = target: T2, SAPK3 (GST-SAPK3) (Rattus norvegicus, UniProt Q63538); assay: Effect of SB 203580 on SKK3-activated SAPK3 (FIG. 19); assay type: biochemical; conditions: even at a concentration of 0.1 mM; activated in vitro with purified SKK3
T2 construct: made in house; host or cells: E. coli BL21 (DE3)
T2 sequence (Q63538 1-367): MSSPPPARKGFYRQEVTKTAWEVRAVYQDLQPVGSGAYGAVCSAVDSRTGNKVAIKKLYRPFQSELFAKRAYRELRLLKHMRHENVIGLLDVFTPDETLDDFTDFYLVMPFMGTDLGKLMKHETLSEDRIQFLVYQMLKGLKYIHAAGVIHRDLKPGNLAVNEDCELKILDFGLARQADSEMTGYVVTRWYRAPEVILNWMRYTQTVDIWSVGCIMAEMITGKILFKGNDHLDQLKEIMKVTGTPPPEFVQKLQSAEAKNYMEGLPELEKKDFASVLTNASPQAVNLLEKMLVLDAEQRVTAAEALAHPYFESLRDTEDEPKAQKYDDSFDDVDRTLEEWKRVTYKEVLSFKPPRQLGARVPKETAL
Method: (§1) Protein kinase assays. SAPK3 was assayed routinely by the phosphorylation of MBP. SAPK3 (0.5 or 1 μM) in 40 μl of 25 mM Tris/HCl pH 7.5, 0.1 mM EGTA, 0.1 mM sodium orthovanadate, 1 μM PKI and 0.33 mg/ml MBP was incubated for 3 min at 30° C. before initiating the reaction with 10 μl of 50 mM magnesium acetate-0.5 mM [γ-^32P]ATP. After 20 min at 30° C. 40 μl aliquots were withdrawn, spotted on to 1.5×1.5 cm squares of Whatman P81 phosphocellulose paper and immersed in 75 mM phosphoric acid. After washing and drying the papers (Alessi et al, 1995b), ^32P radioactivity incorporated into MBP was measured. One unit of activity was that amount of enzyme which incorporated 1 nmol of phosphate into MBP in 1 min.

human SAPK3 = target: T3, human SAPK3 (Homo sapiens, UniProt P53778); assay: Inhibition of SAPK3, MBP phosphorylation (FIG. 9); assay type: biochemical
T3 construct: made in house; host or cells: E. coli BL21(DE3)
T3 sequence (P53778 1-367): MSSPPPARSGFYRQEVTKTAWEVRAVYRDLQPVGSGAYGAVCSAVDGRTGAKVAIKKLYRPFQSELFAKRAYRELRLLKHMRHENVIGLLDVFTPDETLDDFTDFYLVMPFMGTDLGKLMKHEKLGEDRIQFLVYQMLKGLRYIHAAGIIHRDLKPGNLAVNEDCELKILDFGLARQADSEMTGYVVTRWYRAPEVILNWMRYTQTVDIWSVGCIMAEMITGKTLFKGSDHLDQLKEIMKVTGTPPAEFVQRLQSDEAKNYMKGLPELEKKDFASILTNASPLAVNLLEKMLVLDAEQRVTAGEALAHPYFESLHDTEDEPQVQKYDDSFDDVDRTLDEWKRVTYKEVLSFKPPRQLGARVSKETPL
Method: SAPK4, SAPK2a and SAPK2b were assayed routinely by the phosphorylation of MBP, exactly as described for SAPK3 in Example 4 and Cuenda et al, 1997. One unit of activity was that amount of enzyme which incorporated 1 nmol of phosphate into MBP in 1 min. SAPK4 activators were assayed by their ability to activate GST-SAPK4, as described for GST-SAPK3 in Example 4 and Cuenda et al, 1997. Control experiments were carried out in which GST-SAPK4 was omitted. One unit of SAPK4 activator was that amount which increased SAPK4 activity by I U/min. […] SAPK2a activators were assayed by their ability to activate the X. laevis homologue of SAPK2a (Meier et al, 1996). Activated SAPK2a itself was measured by the activation of GST-MAPKAP-K2(46400).
as §1

[1] = dephosphorylated form, <0.1% of the activity of the phosphorylated form, data not shown

## C[S+]([O-])c1ccc(-c2nc(-c3ccncc3)c(-c3ccc(F)cc3)[nH]2)cc1 (stereo not shown) [SB 203580]
MAPKAP-K2
  Suppression of stress- and cytokine-induced activation of MAPKAP-K2: 80-95%
MAPKAP-K3
  Suppression of stress- and cytokine-induced activation of MAPKAP-K3: 80-95%
SAPK4; bacterially expressed SAPK4 activated by SKK3 in vitro
  Inhibition of SAPK4: not inhibited
SAPK4; [1]
  Inhibition of dephosphorylated form of SAPK4: failed to inhibit
SAPK3 (GST-SAPK3)
  Inhibition of SAPK3: not inhibited significantly
Human SAPK3; SAPK3 activated by SKK3 in vitro
  Inhibition of SAPK3: not inhibited
Human SAPK3; [1]
  Inhibition of dephosphorylated form of SAPK3: failed to inhibit
